From ChEMBL document CHEMBL1201862, “PubChem BioAssay data set” (2004)
Activity calls are given as the source filed them. For most assays here, no stated cut-off is given here; in the data, actives have a measured IC50 and inactives only a lower limit.

Assays:
Type in all cases: functional
[1] = target: G-protein coupled receptor 55 (Homo sapiens, UniProt Q9Y2T6); test: blockers of GPR55 signalling, imaged – imaging, image-based, counter-screen for GPR35 antagonist project, SAR follow-up (AID 2397)
[2] = target: T1, Tyrosine-protein phosphatase non-receptor type 22 (Homo sapiens, UniProt Q9Y2R2); test: SAR LYP1 Fluorescent Assay using OMFP substrate for In Vitro dose response studies - Set 2. [Related pubchem assays (depositor defined):AID1779, AID1784, AID2140, AID449726, AID488869]
T1 sequence (Q9Y2R2 whole entry): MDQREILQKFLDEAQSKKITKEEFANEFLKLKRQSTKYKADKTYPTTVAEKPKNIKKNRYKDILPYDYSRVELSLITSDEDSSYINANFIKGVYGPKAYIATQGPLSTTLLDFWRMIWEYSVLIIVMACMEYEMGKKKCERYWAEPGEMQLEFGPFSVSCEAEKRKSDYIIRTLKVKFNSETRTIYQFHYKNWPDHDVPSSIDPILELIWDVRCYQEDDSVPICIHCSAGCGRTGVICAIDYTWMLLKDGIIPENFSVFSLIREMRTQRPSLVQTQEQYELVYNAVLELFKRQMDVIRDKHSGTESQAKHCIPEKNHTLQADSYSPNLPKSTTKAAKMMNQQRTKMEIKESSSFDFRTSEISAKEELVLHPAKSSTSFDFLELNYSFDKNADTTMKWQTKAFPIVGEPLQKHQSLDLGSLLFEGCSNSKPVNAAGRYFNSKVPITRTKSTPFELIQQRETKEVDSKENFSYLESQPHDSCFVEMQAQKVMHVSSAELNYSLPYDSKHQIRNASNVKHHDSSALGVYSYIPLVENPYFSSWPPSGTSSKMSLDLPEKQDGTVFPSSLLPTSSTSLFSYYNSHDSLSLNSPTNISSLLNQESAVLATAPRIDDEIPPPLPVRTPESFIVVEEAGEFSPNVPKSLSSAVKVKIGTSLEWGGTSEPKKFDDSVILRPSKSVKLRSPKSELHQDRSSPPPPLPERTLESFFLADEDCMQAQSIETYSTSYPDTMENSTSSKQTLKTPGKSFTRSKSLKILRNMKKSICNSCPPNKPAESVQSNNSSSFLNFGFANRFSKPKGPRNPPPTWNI

[3] = target: Tyrosine-protein phosphatase non-receptor type 12 (Homo sapiens, UniProt Q05209); test: SAR Selectivity Analysis of small molecule inhibitors of PEST using pCAP in a fluorescence assay. [Related pubchem assays (depositor defined):AID1779, AID1784, AID2135]
[4] = target: T1, Tyrosine-protein phosphatase non-receptor type 22; test: SAR LYP1 Fluorescent Assay using OMFP substrate for In Vitro dose response studies - Set 3. [Related pubchem assays (depositor defined):AID1779, AID1784, AID2140, AID2686]
[5] = target: T1, Tyrosine-protein phosphatase non-receptor type 22; test: SAR LYP1 Fluorescent Assay using pCAP substrate for In Vitro dose response studies - Set 2. [Related pubchem assays (depositor defined):AID1779, AID1784, AID2135, AID449727]
[6] = target: T2, Tyrosine-protein phosphatase non-receptor type 7 (Homo sapiens, UniProt P35236); test: inhibition of hematopoietic tyrosine phosphatase HePTP – biochemical, set 2, SAR follow-up (AID 449736)
T2 sequence (P35236 whole entry): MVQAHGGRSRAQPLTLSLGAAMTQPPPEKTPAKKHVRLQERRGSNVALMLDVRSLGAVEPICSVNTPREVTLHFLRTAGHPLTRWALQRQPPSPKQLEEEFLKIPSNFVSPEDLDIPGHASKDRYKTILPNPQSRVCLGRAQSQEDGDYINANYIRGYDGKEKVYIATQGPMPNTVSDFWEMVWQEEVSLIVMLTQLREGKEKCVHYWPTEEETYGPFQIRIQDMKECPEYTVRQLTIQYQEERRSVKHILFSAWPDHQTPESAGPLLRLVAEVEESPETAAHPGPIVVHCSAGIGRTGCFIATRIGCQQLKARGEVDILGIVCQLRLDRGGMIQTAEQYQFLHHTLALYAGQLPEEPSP

[7] = target: T1, Tyrosine-protein phosphatase non-receptor type 22; test: inhibition of lymphoid tyrosine phosphatase LYP – biochemical, pCAP fluorogenic substrate, fluorescence, set 3, SAR follow-up (AID 449727)
[8] = target: Delta-type opioid receptor (Homo sapiens, UniProt P41143); test: SAR Analysis of Agonists of the DOR Receptor using an Image-Based Assay - Set 3. [Related pubchem assays (depositor defined):AID1777, AID1786]
[9] = target: T3, Kappa-type opioid receptor (Homo sapiens, UniProt P41145); test: SAR analysis of small molecule agonists of the kappa opioid receptor via a luminescent beta-arrestin assay - Set 3. [Related pubchem assays (depositor defined):AID1777, AID1785, AID1786, AID1966, AID2133, AID2136, AID2284, AID2500]
Mu-type opioid receptor = Mu-type opioid receptor (Homo sapiens, UniProt P35372); test: SAR Analysis of Agonists of the MOR Receptor using an Image-Based Assay - Set 3. [Related pubchem assays (depositor defined):AID1777, AID1785, AID1786, AID1966, AID2133, AID2136, AID2284, AID2285, AID2352]
[10] = target: T3, Kappa-type opioid receptor; test: kappa opioid receptor activation by imaging – image-based, set 3, SAR follow-up (AID 488833)
[11] = target: Intestinal-type alkaline phosphatase (Homo sapiens, UniProt P09923); test: inhibition of human intestinal alkaline phosphatase – biochemical, dose response (AID 488876)
[12] = target: Intestinal-type alkaline phosphatase (Mus musculus, UniProt P24822); test: PubChem AID 488785
Vero = test: viability of Vero cells under compound – cytotoxicity control for flavivirus capping enzyme inhibitors (AID 588742); details: Chlorocebus sabaeus
[13] = target: T4, Alkaline phosphatase, tissue-nonspecific isozyme (Homo sapiens, UniProt P05186); test: TNAP enzyme inhibition by screening hits, dose response, selectivity assay for mouse IAP inhibitor project, biochemical, human TNAP, uHTS hits (AID 488906)
T4 sequence (P05186 whole entry): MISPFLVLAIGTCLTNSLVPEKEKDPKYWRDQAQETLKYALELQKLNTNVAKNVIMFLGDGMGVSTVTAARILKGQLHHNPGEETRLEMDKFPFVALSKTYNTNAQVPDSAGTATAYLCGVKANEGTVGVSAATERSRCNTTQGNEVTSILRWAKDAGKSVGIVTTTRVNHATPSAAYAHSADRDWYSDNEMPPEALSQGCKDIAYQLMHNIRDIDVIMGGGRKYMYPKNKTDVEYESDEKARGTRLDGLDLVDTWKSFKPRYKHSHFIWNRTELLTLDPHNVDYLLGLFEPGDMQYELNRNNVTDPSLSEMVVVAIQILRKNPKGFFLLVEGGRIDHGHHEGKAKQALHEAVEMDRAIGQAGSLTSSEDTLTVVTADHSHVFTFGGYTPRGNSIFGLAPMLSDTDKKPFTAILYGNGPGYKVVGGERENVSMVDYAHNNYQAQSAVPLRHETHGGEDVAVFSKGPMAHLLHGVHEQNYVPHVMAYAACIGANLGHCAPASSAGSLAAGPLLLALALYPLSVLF

T3 sequence (P41145 whole entry): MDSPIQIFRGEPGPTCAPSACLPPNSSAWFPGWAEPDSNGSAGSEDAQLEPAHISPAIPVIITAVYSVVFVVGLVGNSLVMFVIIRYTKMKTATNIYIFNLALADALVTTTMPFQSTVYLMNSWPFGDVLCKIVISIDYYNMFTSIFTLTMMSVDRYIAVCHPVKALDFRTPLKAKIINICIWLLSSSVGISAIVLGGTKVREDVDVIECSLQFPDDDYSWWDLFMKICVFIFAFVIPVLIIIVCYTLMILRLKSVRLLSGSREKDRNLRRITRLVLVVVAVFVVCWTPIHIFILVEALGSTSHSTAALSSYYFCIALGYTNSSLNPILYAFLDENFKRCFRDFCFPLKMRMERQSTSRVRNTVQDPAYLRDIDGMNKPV
Delta-type opioid receptor, sequence (P41143 whole entry): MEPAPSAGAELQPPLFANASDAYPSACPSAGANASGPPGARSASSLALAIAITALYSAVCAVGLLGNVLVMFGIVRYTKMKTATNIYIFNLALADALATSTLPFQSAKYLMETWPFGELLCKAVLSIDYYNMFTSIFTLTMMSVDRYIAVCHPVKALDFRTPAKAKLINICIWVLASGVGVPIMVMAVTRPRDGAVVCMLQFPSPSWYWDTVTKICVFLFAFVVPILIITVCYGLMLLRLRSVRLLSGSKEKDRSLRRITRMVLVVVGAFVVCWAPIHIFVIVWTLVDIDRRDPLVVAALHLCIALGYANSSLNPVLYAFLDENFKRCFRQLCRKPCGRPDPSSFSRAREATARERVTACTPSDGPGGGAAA
Mu-type opioid receptor, sequence (P35372 whole entry): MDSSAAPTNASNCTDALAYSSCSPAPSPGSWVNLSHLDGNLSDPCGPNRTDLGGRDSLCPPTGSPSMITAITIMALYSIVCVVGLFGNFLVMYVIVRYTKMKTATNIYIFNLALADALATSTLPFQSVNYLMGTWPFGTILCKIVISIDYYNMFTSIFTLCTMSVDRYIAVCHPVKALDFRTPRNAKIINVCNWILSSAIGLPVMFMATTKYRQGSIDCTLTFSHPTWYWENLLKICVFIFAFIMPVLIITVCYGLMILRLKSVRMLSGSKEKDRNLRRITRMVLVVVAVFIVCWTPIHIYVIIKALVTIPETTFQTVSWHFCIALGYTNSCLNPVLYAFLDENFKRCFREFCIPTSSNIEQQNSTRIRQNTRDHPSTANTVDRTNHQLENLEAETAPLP
Intestinal-type alkaline phosphatase (Mus musculus, UniProt P24822), sequence (P24822 whole entry): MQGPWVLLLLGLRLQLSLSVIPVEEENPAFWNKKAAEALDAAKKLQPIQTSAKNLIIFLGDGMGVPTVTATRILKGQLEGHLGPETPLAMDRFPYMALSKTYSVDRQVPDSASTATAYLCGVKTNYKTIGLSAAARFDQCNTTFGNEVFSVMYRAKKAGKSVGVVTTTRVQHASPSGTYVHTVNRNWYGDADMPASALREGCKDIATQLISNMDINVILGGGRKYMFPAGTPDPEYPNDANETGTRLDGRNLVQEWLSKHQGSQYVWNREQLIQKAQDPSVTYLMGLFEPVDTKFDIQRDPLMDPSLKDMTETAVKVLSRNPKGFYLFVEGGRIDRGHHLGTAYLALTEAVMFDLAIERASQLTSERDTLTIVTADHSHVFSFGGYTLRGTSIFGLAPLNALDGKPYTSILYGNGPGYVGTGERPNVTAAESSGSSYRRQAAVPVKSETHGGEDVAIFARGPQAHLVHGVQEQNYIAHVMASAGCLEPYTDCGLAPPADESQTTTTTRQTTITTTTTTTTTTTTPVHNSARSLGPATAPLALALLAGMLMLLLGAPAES
G-protein coupled receptor 55, sequence (Q9Y2T6 whole entry): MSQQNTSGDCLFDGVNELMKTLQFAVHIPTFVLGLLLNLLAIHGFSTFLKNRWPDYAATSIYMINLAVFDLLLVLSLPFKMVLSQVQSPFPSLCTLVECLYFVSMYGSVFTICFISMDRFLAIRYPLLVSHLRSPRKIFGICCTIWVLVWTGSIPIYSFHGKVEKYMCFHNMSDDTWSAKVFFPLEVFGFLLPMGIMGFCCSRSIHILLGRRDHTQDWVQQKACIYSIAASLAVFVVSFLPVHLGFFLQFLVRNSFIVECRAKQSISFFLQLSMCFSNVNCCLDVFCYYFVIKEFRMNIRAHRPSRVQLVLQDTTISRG
Intestinal-type alkaline phosphatase (Homo sapiens, UniProt P09923), sequence (P09923 whole entry): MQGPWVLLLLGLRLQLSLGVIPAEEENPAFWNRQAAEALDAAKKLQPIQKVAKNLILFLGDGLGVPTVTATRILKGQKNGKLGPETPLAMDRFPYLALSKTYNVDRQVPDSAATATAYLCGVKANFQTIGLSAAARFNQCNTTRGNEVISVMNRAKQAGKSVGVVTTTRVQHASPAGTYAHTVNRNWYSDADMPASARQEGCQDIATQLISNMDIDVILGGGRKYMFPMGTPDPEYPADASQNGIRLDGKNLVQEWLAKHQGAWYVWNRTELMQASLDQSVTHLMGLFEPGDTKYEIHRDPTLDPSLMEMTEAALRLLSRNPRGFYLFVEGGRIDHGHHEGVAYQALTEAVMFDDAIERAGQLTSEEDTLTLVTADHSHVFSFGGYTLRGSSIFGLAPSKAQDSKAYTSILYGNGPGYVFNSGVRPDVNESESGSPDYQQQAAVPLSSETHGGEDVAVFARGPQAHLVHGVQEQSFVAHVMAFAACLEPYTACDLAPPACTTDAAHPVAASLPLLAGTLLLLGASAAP
Tyrosine-protein phosphatase non-receptor type 12, sequence (Q05209 whole entry): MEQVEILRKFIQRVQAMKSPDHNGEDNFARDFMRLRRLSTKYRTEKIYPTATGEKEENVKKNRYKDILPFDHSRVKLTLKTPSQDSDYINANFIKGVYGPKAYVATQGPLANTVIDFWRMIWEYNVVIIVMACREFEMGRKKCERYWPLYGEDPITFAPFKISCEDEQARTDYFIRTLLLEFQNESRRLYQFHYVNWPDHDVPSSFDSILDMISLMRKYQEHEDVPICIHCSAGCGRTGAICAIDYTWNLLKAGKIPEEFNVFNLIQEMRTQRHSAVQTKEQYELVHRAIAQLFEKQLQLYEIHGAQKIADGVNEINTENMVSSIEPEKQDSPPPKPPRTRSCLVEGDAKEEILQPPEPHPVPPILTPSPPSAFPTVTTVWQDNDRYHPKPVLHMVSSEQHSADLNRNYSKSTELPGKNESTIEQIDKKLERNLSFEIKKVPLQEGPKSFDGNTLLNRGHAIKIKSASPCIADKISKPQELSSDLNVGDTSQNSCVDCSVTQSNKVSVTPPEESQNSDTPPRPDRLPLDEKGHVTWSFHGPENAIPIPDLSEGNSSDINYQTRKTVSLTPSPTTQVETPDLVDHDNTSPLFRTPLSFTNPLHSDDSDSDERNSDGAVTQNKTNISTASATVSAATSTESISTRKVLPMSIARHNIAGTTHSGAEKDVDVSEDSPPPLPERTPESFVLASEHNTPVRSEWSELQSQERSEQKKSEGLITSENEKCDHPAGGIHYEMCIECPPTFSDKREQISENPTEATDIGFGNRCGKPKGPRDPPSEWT

SMILES: Fc1ccc(N2CCN(c3ncnc4c3cnn4Cc3ccc(Cl)cc3Cl)CC2)cc1
- IC50 [1]: > 32 µM (inactive)

SMILES: O=C(O)COc1ccc(NC(=O)COc2ccc(Cl)cc2)cc1
- IC50 [2]: > 100 µM (inactive)
- IC50 [3]: > 100 µM (inactive)
- IC50 [4]: > 100 µM (inactive)
- IC50 [5]: > 100 µM (inactive)
- IC50 [6]: > 100 µM (inactive)
- IC50 [7]: > 100 µM (inactive)

SMILES: Fc1cc(F)cc(CSc2nnc(-c3ccccn3)n2Cc2cccs2)c1
- EC50 [8]: > 32 µM (inactive)
- EC50 [9]: 7.2 µM (active)
- EC50 (Mu-type opioid receptor): > 32 µM (inactive)
- EC50 [10]: 3.58 µM (active)

SMILES: CCOC(=O)C1=C(C)N=c2s/c(=C/c3cccc([N+](=O)[O-])c3O)c(=O)n2C1c1ccc(OC)cc1OC (stereo not given)
- IC50 [11]: > 100 µM (inactive)
- IC50 [12]: 4.77 µM (active)
- CC50 (Vero): 39.4 µM (active)
- IC50 [13]: 77.1 µM (active)
